The test system of series [1] is IL-1β, human peripheral blood mononuclear cells (PBMC). The series is described as follows: PBMC cell assay: IL-1β assay with human PBMC or enriched adherent mononuclear cells, LPS-stimulated. Type of series: cell-based. The note with it: Homo sapiens, PBMC. The method, boiled down: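 Buffy-coat human PBMC at 6×10^6 cells/ml, or adherent monocytes enriched by 1 h adherence (2.5−3.0×10^5 cells/well), are given 5–6 compound dilutions bracketing the ICE Ki (final DMSO 0.1%) plus LPS at a final 5 ng/ml. They are incubated 16–18 hr at 37 °C, 5% CO2, and supernatant mature IL-1β is measured by ELISA, with duplicate cultures and duplicate ELISAs.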

The target in the next series is T1, ICE (Homo sapiens, UniProt P29466).
T1 sequence (P29466 120-297 limits assumed): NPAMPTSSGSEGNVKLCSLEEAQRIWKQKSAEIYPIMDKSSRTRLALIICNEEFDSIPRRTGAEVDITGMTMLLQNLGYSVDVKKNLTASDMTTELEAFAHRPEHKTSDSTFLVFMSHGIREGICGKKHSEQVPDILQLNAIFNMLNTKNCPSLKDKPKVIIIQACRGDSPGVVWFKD
T1 sequence (P29466 317-404 limits assumed): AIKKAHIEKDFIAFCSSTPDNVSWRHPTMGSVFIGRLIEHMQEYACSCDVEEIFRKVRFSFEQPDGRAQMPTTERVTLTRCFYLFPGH
The series is described as follows: Enzyme assay with UV-visible substrate (visible ICE assay, Succinyl-Tyr-Val-Ala-Asp-pNitroanilide). Format: biochemical. The method, boiled down:
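Colorimetric caspase-1 activity: 15 min enzyme-inhibitor preincubation (RT), then Suc-Tyr-Val-Ala-Asp-pNA; 405-603 nm kinetics, 20 min, 37° C. Ki from rate fitting.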

The nature of series [2]: Pharmacokinetic studies in the mouse (i.v. clearance, plasma levels). Format: in vivo. The note with it: CD-1, plasma, iv, mouse, 25 mg/kg. As to the method: Pharmacokinetic Studies in the Mouse
Sample Preparation and Dosing
Compounds were dissolved in sterile TRIS solution (0.02M or 0.05M) at a concentration of 2.5 mg/ml. Where necessary to ensure a complete solution, the sample was first dissolved in a minimum of dimethylacetamide (maximum of 5% of total solution volume) then diluted with the TRIS solution.
The drug solution was administered to CD-1 mice (Charles River Laboratories—26-31 g) via the tail vein at a dose volume of 10 ml/kg giving a drug dose of 25 mg/kg.
Mice were dosed in groups of 5 for each timepoint (generally from 2 minutes to 2 hours) then at the appropriate time the animals were anaesthetised with halothane and the blood collected into individual heparinized tubes by jugular severance. The blood samples were cooled to 0° C. then the plasma separated and stored at −20° C. until assayed.
Drug concentration in the plasma samples were determined by HPLC analysis with UV or MS (ESP) detection. Reverse phase chromatography was employed using a variety of bonded phases from C1 to C18 with eluents composed of aqueous buffer/acetonitrile mixtures run under isocratic conditions.
Quantitation was by external standard methods with calibration curves constructed by spiking plasma with drug solutions to give concentrations in the range of 0.5 to 50 μg/ml.
Prior to analysis the plasma samples were deproteinated by the addition of acetonitrile, methanol, trichloroacetic acid or perchloric acid followed by centrifugation at 10,000 g for 10 minutes. Sample volumes of 20 μl to 50 μl were injected for analysis.
The drug was dissolved in sterile 0.02M Tris to give a 2.5 mg/ml solution which was administered to […] of 5 male CD-1 mice via the tail vein at a dose of 25 mg/kg. At each of the following timepoints: 2, 5, 10, 15, 20, 30, 45, 60, 90 and 120 minutes a group of animals was anaesthetised and the blood collected into heparinized tubes. After separation the plasma was stored at −20° C. until assayed.
Aliquots of plasma (150 μl) were treated with 5% perchloric acid (5 μl) then mixed by vortexing and allowed to stand for 90 minutes prior to centrifugation. The resulting supernatant was separated and 20 μl was injected for HPLC analysis.
Aliquots of plasma (100 μl) were diluted with acetonitrile (100 μl) then mixed by vortexing for 20 seconds before centrifugation for 10 minutes. The resulting supernatant was separated and 20 μl was injected for HPLC analysis.

The nature of series [3]: In vivo rat clearance assay. The following applies: plasma, iv, 10-20 mg/kg. On the procedure:
In Vivo Rat Clearance Assay
Cannulations of the jugular and carotid vessels of rats under anesthesia were performed one day prior to the pharmacokinetic study. M. J. Free, R. A. Jaffee; ‘Cannulation techniques for the collection blood and other bodily fluids’; in: Animal Models; p. 480-495; N. J. Alexander, Ed.; Academic Press; (1978). Drug (10 mg/mL) was administered via the jugular vein in a vehicle usually consisting of: propylene glycol/saline, containing 100 mM sodium bicarbonate in a 1:1 ratio. Animals were dosed with 10-20 mg drug/kg and blood samples were drawn at 0, 2, 5, 7, 10, 15, 20, 30, 60, and 90 minutes from an indwelling carotid catheter. The blood was centrifuged to plasma and stored at −20° C. until analysis. Pharmacokinetic analysis of data was performed by non-linear regression using standard software such as RStrip (MicroMath Software, UT) and/or Pcnonlin (SCI Software, NC) to obtain clearance values.
Rat plasma was extracted with an equal volume of acetonitrile (containing 0.1% TFA). Samples were then centrifuged at approximately 1,000×g and the supernatant analyzed by gradient HPLC. A typical assay procedure is described below.
A standard curve was run at 20, 10, 5, 2 and 1 μg/mL concentrations.

Series [4] relates to IL-1β production, LPS-challenged mice. The series is described as follows: In vivo acute assay for efficacy as anti-inflammatory agent: LPS-induced IL-1β production in mice. The arrangement: species or system mouse. The following applies: Mus musculus, po, LPS challenged mice, compound PO, 50 mg/kg, read-out: percent inhibition of IL-1β production. The method, boiled down:
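CD1 mice (n=6) were challenged with LPS 20 mg/kg IP and given compound IP in olive oil:DMSO:ethanol (90:5:5) 1 h after LPS, or at the time of challenge for some analogs. Blood was taken 7 h after LPS and serum IL-1β was measured by ELISA. Oral gavage at 50 mg/kg was also tested.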

The test system of another series is IL-1β, human whole blood. Nature of the series: Whole blood assay for IL-1β production. Type of series: cell-based. The following applies: * = values obtained upon reassay, read-out: Whole human blood IC50. The method, boiled down:
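Human whole blood collected on Na2EDTA was treated with serially diluted compound in saline and then stimulated with LPS at 5.0 ng/ml final, for 16-18 h at 30 °C, in duplicate or triplicate. Plasma IL-1β was measured by ELISA at 1:200 dilution.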

[5] abbreviates: * = values obtained upon reassay.
Where [6] appears, read: 0 h, administered 0 h relative to time of LPS challenge.
Where [7] appears, read: 2 h, administered −2 h relative to time of LPS challenge.

The structures appear in SMILES notation. Like-named read-outs stand apart in the source and are kept apart here.

The molecule `O=C[C@H](CC(=O)O)NC(=O)CN1C(=O)[C@@H](NC(=O)c2ccccc2)CN(C(=O)c2ccccc2)c2ccccc21` [Compound 605c, (3S)-3-[(3S)-2-Oxo-3-benzoylamino-5-benzoyl-2,3,4,5-tetrahydro-1H-1,5-benzodiazepin-1-acetylamino]-4-oxo-butyric acid] returned an IC50 in series [1] (setting [5]) of 4500 nM. Besides, the Ki at ICE (Table 5) was found to be 615 nM. Further, the clearance in series [2] stood at 37 mL/min/kg.

Molecule `CC(=O)Nc1ccc(C(=O)N[C@H]2CCC(=O)N3CCC[C@@H](C(=O)N[C@H](C=O)CC(=O)O)N3C2=O)cc1` [Compound 418] returned a Ki on ICE (Table 5) of 2.2 nM. Also, the clearance in series [2] is 13 mL/min/kg; in series [3], 5.9 mL/min/kg. Also, the inhibition at 50 mg/kg in series [4] (setting [6]) amounted to 52%; in series [4] (1 h, administered +1 h relative to time of LPS challenge), 64%; in series [4] (setting [7]), 25%.

Consider `CC(=O)N1C[C@H](NC(=O)c2ccccc2)C(=O)N(CC(=O)N[C@H](C=O)CC(=O)O)c2ccccc21` [Compound 605d, (3S)-3-[(3S)-2-Oxo-3-benzoylamino-5-acetyl-2,3,4,5-tetrahydro-1H-1,5-benzodiazepin-1-acetylamino]-4-oxo-butyric acid], for which, in series [1] (setting [5]), the IC50 is 5100 nM. In addition, the Ki on ICE (Table 5) came to 95 nM. Moreover, the clearance in series [2] turned out to be 33 mL/min/kg.

Turning to `CS(=O)(=O)N[C@H]1CCC(=O)N2CCC[C@@H](C(=O)N[C@@H](CC(=O)O)C(=O)c3nc4cc(Cl)cc(Cl)c4o3)N2C1=O` [Compound 223b, [3S(1S,9S)]-4-(5,7-Dichlorobenzoxazol-2-yl)-3-(6,10-dioxo-9-methylsulphonylamino-1,2,3,4,7,8,9,10-octahydro-6H-pyridazino[1,2-a][1,2]diazepine-1-carboxamido)-4-oxobutanoic acid], half-maximal inhibition in series [1] (setting [5]) (IC50) required 5000 nM. The molecule further registered a Ki on ICE (Table 5) of 99 nM. Further, in series [2], the clearance is above 100 mL/min/kg.

On ICE (Table 5), `Nc1ccc(C(=O)N[C@H]2CCC(=O)N3CCC[C@@H](C(=O)N[C@H](C=O)CC(=O)O)N3C2=O)cc1Cl` [Compound 481] registered a Ki of 1.2 nM. Besides, the IC50 with IL-1β, human whole blood was found to be 500 nM; with IL-1β, human whole blood (Homo sapiens), 600 nM. In series [3], the clearance worked out at 34 mL/min/kg. The inhibition at 50 mg/kg amounted to 0% in series [4] (setting [6]) and 27% in series [4] (setting [7]).

On to `O=C(O)CC(NC(=O)Cn1c(Cc2ccccc2)ccc(NC(=O)CCc2ccccc2)c1=O)C(=O)COC(=O)c1c(Cl)cccc1Cl` (stereo not shown) [Compound 57b, N-2-(6-Benzyl-1,2-dihydro-2-oxo-3-(3-phenylpropionyl)amino-1-pyridyl)acetyl-3-amino-5-(2,6-dichloro-benzoyloxy)-4-oxo-pentanoic acid], for which the melting point was 116 to 120 °C (dec.).

On to `O=C(O)C[C@H](NC(=O)[C@@H]1CCCN2C(=O)CC[C@H](NC(=O)c3ccccc3)C(=O)N12)C(=O)CSc1nccs1` [Compound 510a, [3S(1S,9S)]3-(9-Benzoylamino-6,10-dioxo-1,2,3,4,7,8,9,10-octahydro-6H-pyridazino[1,2-a][1,2]diazepine-1-carboxamido)-5-(2-mercaptothiazole)-4-oxopentanoic acid], for which, in series [1] (Table 17), inhibition was half-maximal at 200 nM (IC50). This molecule had a Ki on ICE (Table 17) of 65 nM. This molecule also came in with a clearance in series [2] (Table 17) of 267 mL/min/kg.

On to `COC(=O)N1C[C@H](NC(=O)c2ccccc2)C(=O)N(CC(=O)N[C@H](C=O)CC(=O)O)c2ccccc21` [Compound 605j, (3S)-3-[(3S)-2-Oxo-3-benzoylamino-5-methoxycarbonyl-2,3,4,5-tetrahydro-1H-1,5-benzodiazepin-1-acetylamino]-4-oxo-butyric acid], for which the IC50 in series [1] (setting [5]) was found to be 8750 nM. For the same molecule, the affinity on ICE (Table 5), expressed as Ki, was 110 nM. The clearance in series [2] amounted to 71 mL/min/kg.

Regarding `O=C[C@H](CC(=O)O)NC(=O)CN1C(=O)[C@@H](NC(=O)c2ccccc2)CN(C(=O)Cc2ccccc2)c2ccccc21` [Compound 605b, (3S)-3-[(3S)-2-Oxo-3-benzoylamino-5-phenylacetyl-2,3,4,5-tetrahydro-1H-1,5-benzodiazepin-1-acetylamino]-4-oxo-butyric acid], the IC50 in series [1] (setting [5]) stood at 10000 nM. This molecule gave an inhibition constant (Ki) on ICE (Table 5) of 45 nM. Moreover, in series [2], the clearance amounted to 97 mL/min/kg.

The IC50 is the concentration that gives 50% inhibition. Usually Ki stands for the dissociation constant of the complex between target and ligand, obtained from inhibition or displacement. Usually clearance stands for the rate of elimination divided by the concentration. A low value points to a low capacity for elimination. By inhibition is commonly meant the percentage by which the read-out fell short of the control. For orientation: melting point means the temperature of the solid-liquid transition.
